Earlier results as cited in patent US12257323B2, “Modified wound dressings” (CONVATEC TECHNOLOGIES INC., priority 2016, dated 2025).

Tests used:
Details in all cases: cited from earlier work
[1] = molecular target: MMP-9 (Homo sapiens, UniProt P14780)
[2] = molecular target: T1, MMP-1 (Homo sapiens, UniProt P03956)
T1 sequence (P03956 100-469): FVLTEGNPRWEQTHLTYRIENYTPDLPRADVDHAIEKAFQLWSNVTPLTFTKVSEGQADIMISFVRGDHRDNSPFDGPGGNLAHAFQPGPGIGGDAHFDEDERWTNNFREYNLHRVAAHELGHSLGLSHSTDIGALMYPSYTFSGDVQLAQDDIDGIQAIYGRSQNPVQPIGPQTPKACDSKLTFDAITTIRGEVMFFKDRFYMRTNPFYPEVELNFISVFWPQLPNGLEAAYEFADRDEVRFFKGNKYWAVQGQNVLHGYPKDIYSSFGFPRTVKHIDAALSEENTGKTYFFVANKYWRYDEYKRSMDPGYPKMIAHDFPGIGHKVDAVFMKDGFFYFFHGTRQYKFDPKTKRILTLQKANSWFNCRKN

[3] = molecular target: MMP-3 (Homo sapiens, UniProt P08254)
Chain of MMP-3 (P08254 100-477): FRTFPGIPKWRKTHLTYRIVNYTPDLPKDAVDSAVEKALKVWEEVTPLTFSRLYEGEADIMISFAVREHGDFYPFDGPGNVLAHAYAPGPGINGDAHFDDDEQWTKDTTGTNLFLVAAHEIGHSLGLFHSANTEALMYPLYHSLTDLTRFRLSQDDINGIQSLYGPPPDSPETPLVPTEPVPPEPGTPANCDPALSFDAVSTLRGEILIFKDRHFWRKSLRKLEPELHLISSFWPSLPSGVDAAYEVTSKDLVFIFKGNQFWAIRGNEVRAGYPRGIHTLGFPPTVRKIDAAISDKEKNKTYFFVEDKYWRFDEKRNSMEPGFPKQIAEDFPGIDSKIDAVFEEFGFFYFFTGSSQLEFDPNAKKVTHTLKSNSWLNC

[4] = molecular target: MMP-8 (Homo sapiens, UniProt P22894)
Chain of MMP-8 (P22894 101-467): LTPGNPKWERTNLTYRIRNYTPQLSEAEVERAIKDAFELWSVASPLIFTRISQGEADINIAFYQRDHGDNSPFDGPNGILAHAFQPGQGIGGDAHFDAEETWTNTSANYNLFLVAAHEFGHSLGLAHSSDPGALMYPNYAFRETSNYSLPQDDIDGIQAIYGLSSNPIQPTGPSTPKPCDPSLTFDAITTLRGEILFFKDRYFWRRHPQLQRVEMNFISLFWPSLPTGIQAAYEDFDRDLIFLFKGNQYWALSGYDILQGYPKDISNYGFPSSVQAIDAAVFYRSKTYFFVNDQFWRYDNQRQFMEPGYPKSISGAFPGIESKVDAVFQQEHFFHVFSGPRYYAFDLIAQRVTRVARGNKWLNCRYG

[5] = molecular target: T2, MMP-2 (Homo sapiens, UniProt P08253)
T2 sequence (P08253 110-660): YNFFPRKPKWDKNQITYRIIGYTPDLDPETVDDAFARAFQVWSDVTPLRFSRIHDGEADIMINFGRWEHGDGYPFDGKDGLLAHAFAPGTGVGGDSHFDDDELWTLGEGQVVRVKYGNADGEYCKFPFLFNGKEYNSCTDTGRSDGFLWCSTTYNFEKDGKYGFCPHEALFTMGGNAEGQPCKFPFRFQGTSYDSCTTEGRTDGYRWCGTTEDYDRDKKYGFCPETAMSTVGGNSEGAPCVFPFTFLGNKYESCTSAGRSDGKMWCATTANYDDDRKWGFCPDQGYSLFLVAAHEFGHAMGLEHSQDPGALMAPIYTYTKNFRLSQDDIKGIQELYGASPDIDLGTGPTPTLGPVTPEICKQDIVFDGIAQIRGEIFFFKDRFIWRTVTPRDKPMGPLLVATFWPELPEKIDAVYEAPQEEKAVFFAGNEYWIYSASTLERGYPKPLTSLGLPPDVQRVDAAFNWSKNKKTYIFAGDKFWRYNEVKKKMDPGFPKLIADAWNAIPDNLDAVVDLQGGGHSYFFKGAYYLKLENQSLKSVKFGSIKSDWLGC

[6] = molecular target: T3, MMP-7 (Homo sapiens, UniProt P09237)
T3 sequence (P09237 95-267): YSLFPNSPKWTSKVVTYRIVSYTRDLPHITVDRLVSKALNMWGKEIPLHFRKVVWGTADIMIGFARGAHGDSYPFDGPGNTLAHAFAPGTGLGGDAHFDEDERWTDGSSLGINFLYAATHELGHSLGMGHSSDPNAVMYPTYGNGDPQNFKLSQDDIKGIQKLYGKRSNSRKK

Chain of MMP-9 (P14780 94-707): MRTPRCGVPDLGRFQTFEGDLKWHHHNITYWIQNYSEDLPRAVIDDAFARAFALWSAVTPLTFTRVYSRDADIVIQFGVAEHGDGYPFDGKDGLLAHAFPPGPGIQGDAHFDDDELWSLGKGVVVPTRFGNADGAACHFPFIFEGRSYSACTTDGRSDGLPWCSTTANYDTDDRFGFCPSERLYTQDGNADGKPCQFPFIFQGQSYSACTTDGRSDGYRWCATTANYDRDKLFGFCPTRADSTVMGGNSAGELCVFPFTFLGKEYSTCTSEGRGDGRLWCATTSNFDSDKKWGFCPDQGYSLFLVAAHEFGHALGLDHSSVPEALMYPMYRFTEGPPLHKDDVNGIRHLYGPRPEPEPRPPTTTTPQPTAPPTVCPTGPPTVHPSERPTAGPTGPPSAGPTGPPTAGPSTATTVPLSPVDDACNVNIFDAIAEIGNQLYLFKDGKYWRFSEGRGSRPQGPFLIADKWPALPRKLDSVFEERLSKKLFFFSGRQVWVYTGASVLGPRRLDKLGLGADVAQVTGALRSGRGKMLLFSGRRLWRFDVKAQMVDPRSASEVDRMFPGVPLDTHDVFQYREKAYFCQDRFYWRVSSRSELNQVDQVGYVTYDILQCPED

GIy-Pro-Gln-Gly4Ile-Arg-Gly-Gln
Relative rate MMP-9 [1]: 200
Relative rate MMP-1 [2]: 180
Relative rate MMP-3 [3]: 250
Relative rate MMP-8 [4]: 170
Relative rate MMP-2 [5]: 180
Relative rate MMP-7 [6]: 270

Gly-Ala-Gln-Gly#Ile-Ala-Gly-Gln (GAQGIAGQ; printed: Gly-Ala-Gln-Gly; printed: Ile-Ala-Gly-Gln)
Relative rate MMP-9 [1]: 9.4
Relative rate MMP-1 [2]: 50
Relative rate MMP-3 [3]: 62
Relative rate MMP-8 [4]: 23
Relative rate MMP-2 [5]: 22

Gly-Asn-Gln-Gly#Ile-Ala-Gly-Gln (GNQGIAGQ; printed: Gly-Asn-Gln-Gly; printed: Ile-Ala-Gly-Gln)
Relative rate MMP-9 [1]: <5.0
Relative rate MMP-1 [2]: 17
Relative rate MMP-3 [3]: 68
Relative rate MMP-8 [4]: 45
Relative rate MMP-2 [5]: 60
Relative rate MMP-7 [6]: 25

Gly-Pro-Asp-Gly#Ile-Ala-Gly-Gln (GPDGIAGQ; printed: Gly-Pro-Asp-Gly; printed: Ile-Ala-Gly-Gln)
Relative rate MMP-9 [1]: 10
Relative rate MMP-1 [2]: 30
Relative rate MMP-3 [3]: 89
Relative rate MMP-8 [4]: 44
Relative rate MMP-2 [5]: 11
Relative rate MMP-7 [6]: 7.0

Gly-Pro-Gln-Ala#Ile-Ala-Gly-Gln
Relative rate MMP-9 [1]: 110
Relative rate MMP-1 [2]: 600
Relative rate MMP-3 [3]: 300
Relative rate MMP-8 [4]: 320
Relative rate MMP-2 [5]: 96
Relative rate MMP-7 [6]: 530

Gly-Pro-Gln-Gln#Ile-Ala-Gly-Gln
Relative rate MMP-9 [1]: 13
Relative rate MMP-1 [2]: 140
Relative rate MMP-3 [3]: 140
Relative rate MMP-8 [4]: 150
Relative rate MMP-2 [5]: 25
Relative rate MMP-7 [6]: 180

Gly-Pro-Gln-Glu#Ile-Ala-Gly-Gln
Relative rate MMP-9 [1]: 29
Relative rate MMP-1 [2]: 28
Relative rate MMP-3 [3]: 190
Relative rate MMP-8 [4]: 330
Relative rate MMP-2 [5]: 15
Relative rate MMP-7 [6]: 170

Gly-Pro-Gln-Glv#Met-Ala-Gly-Gln
Relative rate MMP-9 [1]: 170
Relative rate MMP-1 [2]: 110
Relative rate MMP-3 [3]: 60
Relative rate MMP-8 [4]: 84
Relative rate MMP-2 [5]: 230
Relative rate MMP-7 [6]: 89

Gly-Pro-Gln-Gly#Arg-Ala-Gly-Gln
Relative rate MMP-9 [1]: <5.0
Relative rate MMP-1 [2]: <0.5
Relative rate MMP-3 [3]: <4.9
Relative rate MMP-8 [4]: <0.5
Relative rate MMP-2 [5]: <5.0
Relative rate MMP-7 [6]: <5.0

Gly-Pro-Gln-Gly#Gln-Ala-Gly-Gln
Relative rate MMP-9 [1]: 20
Relative rate MMP-1 [2]: 28
Relative rate MMP-3 [3]: 38
Relative rate MMP-8 [4]: 10
Relative rate MMP-2 [5]: 34
Relative rate MMP-7 [6]: <5.0

Gly-Pro-Gln-Gly#Glu-Ala-Gly-Gln
Relative rate MMP-9 [1]: <5.0
Relative rate MMP-1 [2]: <0.5
Relative rate MMP-3 [3]: <0.5
Relative rate MMP-8 [4]: <0.5
Relative rate MMP-2 [5]: <5.0
Relative rate MMP-7 [6]: 8.0

Gly-Pro-Gln-Gly#Ile-Ala-Ala-Gln
Relative rate MMP-9 [1]: 140
Relative rate MMP-1 [2]: 220
Relative rate MMP-3 [3]: 280
Relative rate MMP-8 [4]: 120
Relative rate MMP-2 [5]: 180
Relative rate MMP-7 [6]: 300

Gly-Pro-Gln-Gly#Ile-Ala-Arg-Gln
Relative rate MMP-9 [1]: 45
Relative rate MMP-1 [2]: 55
Relative rate MMP-3 [3]: 490
Relative rate MMP-8 [4]: 34
Relative rate MMP-2 [5]: 35
Relative rate MMP-7 [6]: 220

Gly-Pro-Gln-Gly#Ile-Ala-Gly His
Relative rate MMP-9 [1]: 120
Relative rate MMP-1 [2]: 91
Relative rate MMP-3 [3]: 110
Relative rate MMP-8 [4]: 145
Relative rate MMP-2 [5]: 150
Relative rate MMP-7 [6]: 87

Gly-Pro-Gln-Gly#Ile-Ala-Gly-Ala
Relative rate MMP-9 [1]: 110
Relative rate MMP-1 [2]: 86
Relative rate MMP-3 [3]: 130
Relative rate MMP-8 [4]: 110
Relative rate MMP-2 [5]: 85
Relative rate MMP-7 [6]: 91

Gly-Pro-Gln-Gly#Ile-Ala-Gly-Gln
Relative rate MMP-9 [1]: 100
Relative rate MMP-1 [2]: 100
Relative rate MMP-3 [3]: 100
Relative rate MMP-8 [4]: 100
Relative rate MMP-2 [5]: 100
Relative rate MMP-7 [6]: 100

Gly-Pro-Gln-Gly#Ile-Ala-Gly-Thr
Relative rate MMP-9 [1]: 160
Relative rate MMP-1 [2]: 160
Relative rate MMP-3 [3]: 72
Relative rate MMP-8 [4]: 145
Relative rate MMP-2 [5]: 59
Relative rate MMP-7 [6]: 100

Gly-Pro-Gln-Gly#Ile-Ala-Met-Gln
Relative rate MMP-9 [1]: 35
Relative rate MMP-1 [2]: 130
Relative rate MMP-3 [3]: 810
Relative rate MMP-8 [4]: 34
Relative rate MMP-2 [5]: 40
Relative rate MMP-7 [6]: 450

Gly-Pro-Gln-Gly#Ile-Ala-Ser-Gln
Relative rate MMP-9 [1]: 130
Relative rate MMP-1 [2]: 91
Relative rate MMP-3 [3]: 230
Relative rate MMP-8 [4]: 58
Relative rate MMP-2 [5]: 320
Relative rate MMP-7 [6]: 150

Gly-Pro-Gln-Gly#Ile-Ala-Val-Gln
Relative rate MMP-9 [1]: 49
Relative rate MMP-1 [2]: 100
Relative rate MMP-3 [3]: 170
Relative rate MMP-8 [4]: 57
Relative rate MMP-2 [5]: 26
Relative rate MMP-7 [6]: 170

Gly-Pro-Gln-Gly#Ile-Glu-Gly-Gln
Relative rate MMP-9 [1]: 130
Relative rate MMP-1 [2]: 35
Relative rate MMP-3 [3]: 58
Relative rate MMP-8 [4]: 59
Relative rate MMP-2 [5]: 85
Relative rate MMP-7 [6]: 86

Gly-Pro-Gln-Gly#Ile-Hyp-Gly-Gln
Relative rate MMP-9 [1]: 11
Relative rate MMP-1 [2]: 7.3
Relative rate MMP-3 [3]: 42
Relative rate MMP-8 [4]: 1.5
Relative rate MMP-2 [5]: 32
Relative rate MMP-7 [6]: 8.0

Gly-Pro-Gln-Gly#Ile-Leu-Gly-Gln
Relative rate MMP-9 [1]: 240
Relative rate MMP-1 [2]: 430
Relative rate MMP-3 [3]: 280
Relative rate MMP-8 [4]: 400
Relative rate MMP-2 [5]: 400
Relative rate MMP-7 [6]: 250

Gly-Pro-Gln-Gly#Ile-Phe-Gly-Gln
Relative rate MMP-9 [1]: 390
Relative rate MMP-1 [2]: 369
Relative rate MMP-3 [3]: 130
Relative rate MMP-8 [4]: 510
Relative rate MMP-2 [5]: 380
Relative rate MMP-7 [6]: 140

Gly-Pro-Gln-Gly#Ile-Trp-Gly-Gln
Relative rate MMP-9 [1]: 140
Relative rate MMP-1 [2]: 840
Relative rate MMP-3 [3]: 280
Relative rate MMP-8 [4]: 930
Relative rate MMP-2 [5]: 310
Relative rate MMP-7 [6]: 330

Gly-Pro-Gln-Gly#Leu-Ala-Gly-Gln
Relative rate MMP-9 [1]: 80
Relative rate MMP-1 [2]: 130
Relative rate MMP-3 [3]: 110
Relative rate MMP-8 [4]: 180
Relative rate MMP-2 [5]: 88
Relative rate MMP-7 [6]: 300

Gly-Pro-Gln-Gly#Phe-Ala-Gly-Gln
Relative rate MMP-9 [1]: 24
Relative rate MMP-1 [2]: 20
Relative rate MMP-3 [3]: 140
Relative rate MMP-8 [4]: 46
Relative rate MMP-2 [5]: 55
Relative rate MMP-7 [6]: 74

Gly-Pro-Gln-Gly#Pro-Ala-Gly-Gln
Relative rate MMP-9 [1]: <5.0
Relative rate MMP-1 [2]: <0.5
Relative rate MMP-3 [3]: <0.5
Relative rate MMP-8 [4]: <0.5
Relative rate MMP-2 [5]: <5.0
Relative rate MMP-7 [6]: <5.0

Gly-Pro-Gln-Gly#Ser-Ala-Gly-Gln
Relative rate MMP-9 [1]: <5.0
Relative rate MMP-1 [2]: 5.9
Relative rate MMP-3 [3]: 45
Relative rate MMP-8 [4]: 1.6
Relative rate MMP-2 [5]: 15
Relative rate MMP-7 [6]: 5.5

Gly-Pro-Gln-Gly#Trp-Ala-Gly-Gln
Relative rate MMP-9 [1]: <5.0
Relative rate MMP-1 [2]: <0.5
Relative rate MMP-3 [3]: 120
Relative rate MMP-8 [4]: 49
Relative rate MMP-2 [5]: <5.0
Relative rate MMP-7 [6]: <5.0

Gly-Pro-Gln-Gly#Tyr-Ala-Gly-Gln
Relative rate MMP-9 [1]: 96
Relative rate MMP-1 [2]: 50
Relative rate MMP-3 [3]: 150
Relative rate MMP-8 [4]: 390
Relative rate MMP-2 [5]: 50
Relative rate MMP-7 [6]: 21

Gly-Pro-Gln-His#Ile-Ala-Gly-Gln
Relative rate MMP-9 [1]: 44
Relative rate MMP-1 [2]: 190
Relative rate MMP-3 [3]: 87
Relative rate MMP-8 [4]: 50
Relative rate MMP-2 [5]: 65
